Measurements taken from PubChem BioAssay AID330 (DTP/NCI, 2004).
Where “and” joins values, the source holds several entries; their conditions need not be identical. Identical values can stand only once. Toxic doses and inconclusive results are not listed.

Test system: P388 leukemia ip, CD2F1 mice, survival T/C
Assay: NCI In Vivo Anticancer Drug Screen. Data for tumor model P388 Leukemia (intraperitoneal) in CD2F1 (CDF1) mice
Settings: endpoint: median survival time, higher = longer survival
Procedure, shortened: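 Mice carrying the transplanted tumor received test compound or vehicle. Survival was recorded in each group, and the value is the treated-group measurement divided by that of the vehicle-treated control group.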

[1] = dose: 12.5 mg/kg/injection, schedule: Q01DX009 (ip), vehicle: saline with Tween-80
[2] = dose: 25.0 mg/kg/injection, schedule: Q01DX009 (ip), vehicle: saline with Tween-80
[3] = dose: 100.0 mg/kg/injection, schedule: Q01DX001 (ip), vehicle: Klucel (hydroxypropylcellulose) (HPC)
[4] = dose: 200.0 mg/kg/injection, schedule: Q01DX001 (ip), vehicle: Klucel (hydroxypropylcellulose) (HPC)
[5] = dose: 400.0 mg/kg/injection, schedule: Q01DX001 (ip), vehicle: Klucel (hydroxypropylcellulose) (HPC)
[6] = dose: 50.0 mg/kg/injection, schedule: Q01DX005 (ip), vehicle: Klucel (hydroxypropylcellulose) (HPC)
[7] = dose: 100.0 mg/kg/injection, schedule: Q01DX005 (ip), vehicle: Klucel (hydroxypropylcellulose) (HPC)
[8] = dose: 200.0 mg/kg/injection, schedule: Q01DX005 (ip), vehicle: Klucel (hydroxypropylcellulose) (HPC)
[9] = dose: 50.0 mg/kg/injection, schedule: Q01DX009 (ip), vehicle: Klucel (hydroxypropylcellulose) (HPC)
[10] = dose: 100.0 mg/kg/injection, schedule: Q01DX009 (ip), vehicle: Klucel (hydroxypropylcellulose) (HPC)
[11] = dose: 200.0 mg/kg/injection, schedule: Q01DX009 (ip), vehicle: Klucel (hydroxypropylcellulose) (HPC)
[12] = dose: 50.0 mg/kg/injection, schedule: Q01DX005 (ip), vehicle: saline with Tween-80
[13] = dose: 100.0 mg/kg/injection, schedule: Q01DX005 (ip), vehicle: saline with Tween-80
[14] = dose: 200.0 mg/kg/injection, schedule: Q01DX005 (ip), vehicle: saline with Tween-80

`Oc1c(Cl)cc(Cl)cc1C1Nc2ccccc2-n2cccc21` (stereo not given) was tested, and the T/C (dose: 6.25 mg/kg/injection, schedule: Q01DX009 (ip), vehicle: saline with Tween-80) was 91 % of control, the T/C [1] was 96 % of control and the T/C [2] was 91 % of control.

`CC1(CC(=O)O)OC(c2ccccc2)=CC1=O` (stereo not given) was tested, and the T/C [3] was 98 % of control, the T/C [4] was 92 % of control and the T/C [5] was 92 % of control.

`CN1CCC23c4c5ccc(O)c4OC2C(O)C=CC3C1C5` (stereo not given) was tested, and the T/C (dose: 32.0 mg/kg/injection, schedule: Q01DX009 (ip), vehicle: saline) was 97 % of control, the T/C (dose: 64.0 mg/kg/injection, schedule: Q01DX009 (ip), vehicle: saline) was 106 % of control and the T/C (dose: 128.0 mg/kg/injection, schedule: Q01DX009 (ip), vehicle: saline) was 95 % of control.

`O=C1CSC(c2ccc(O)cc2)N1c1nncs1` (stereo not given) was tested, and the T/C (dose: 60.0 mg/kg/injection, schedule: Q01DX005 (ip), vehicle: saline with Tween-80) was 107 % of control, the T/C (dose: 120.0 mg/kg/injection, schedule: Q01DX005 (ip), vehicle: saline with Tween-80) was 104 % of control and the T/C (dose: 240.0 mg/kg/injection, schedule: Q01DX005 (ip), vehicle: saline with Tween-80) was 98 % of control.

With `CCc1nn2c(-c3cnns3)nnc2s1` the T/C [3] was 99 % of control, the T/C [4] was 104 % of control and the T/C [5] was 99 % of control.

With `Cn1ccccc1=NCC(N)=O` the T/C (dose: 100.0 mg/kg/injection, schedule: Q04DX002 (ip), vehicle: saline) was 99 % of control, the T/C (dose: 200.0 mg/kg/injection, schedule: Q04DX002 (ip), vehicle: saline) was 104 % of control and the T/C (dose: 400.0 mg/kg/injection, schedule: Q04DX002 (ip), vehicle: saline) was 102 % of control.

In the case of `COc1cccc2c1C(=O)c1c(O)c3c(c(O)c1C2=O)C[C@@](O)(C(=O)CO)C[C@@H]3OC1CC(N(C)C)C(O)C(C)O1` (stereo not given in full), the T/C (dose: 0.06 mg/kg/injection, schedule: Q01DX009 (ip), vehicle: water) is reported as 108 % of control, the T/C (dose: 0.13 mg/kg/injection, schedule: Q01DX009 (ip), vehicle: water) is reported as 119 % of control and the T/C (dose: 0.19 mg/kg/injection, schedule: Q04DX003 (ip), vehicle: water) is reported as 104 % of control. For the same compound, the T/C (dose: 0.25 mg/kg/injection, schedule: Q01DX009 (ip), vehicle: water) was 150 % of control, the T/C (dose: 0.38 mg/kg/injection, schedule: Q04DX003 (ip), vehicle: water) was 100 % of control and the T/C (dose: 0.5 mg/kg/injection, schedule: Q01DX009 (ip), vehicle: water) was 160 % of control and 164 % of control. For the same compound, the T/C (dose: 0.75 mg/kg/injection, schedule: Q04DX003 (ip), vehicle: water) was 104 % of control, the T/C (dose: 0.86 mg/kg/injection, schedule: Q04DX003 (ip), vehicle: water) was 154 % of control and the T/C (dose: 1.44 mg/kg/injection, schedule: Q04DX003 (ip), vehicle: water) was 163 % of control. For the same compound, the T/C (dose: 1.5 mg/kg/injection, schedule: Q04DX003 (ip), vehicle: water) was 106 % of control, the T/C (dose: 2.0 mg/kg/injection, schedule: Q01DX009 (ip), vehicle: water) was 101 % of control and the T/C (dose: 2.4 mg/kg/injection, schedule: Q04DX003 (ip), vehicle: water) was 175 % of control. For the same compound, the T/C (dose: 2.5 mg/kg/injection, schedule: Q01DX001 (ip), vehicle: water) was 153 % of control, the T/C (dose: 3.0 mg/kg/injection, schedule: Q04DX003 (ip), vehicle: water) was 113 % of control and the T/C (dose: 4.0 mg/kg/injection, schedule: Q04DX003 (ip), vehicle: water) was 117 % of control. For the same compound, the T/C (dose: 5.0 mg/kg/injection, schedule: Q01DX001 (ip), vehicle: water) was 153 % of control, the T/C (dose: 6.0 mg/kg/injection, schedule: Q04DX003 (ip), vehicle: water) was 123 % of control and the T/C (dose: 6.67 mg/kg/injection, schedule: Q04DX003 (ip), vehicle: water) was 97 % of control.

In the case of `C/C(=N\NC(=S)N1CCN(c2ccccn2)CC1)c1cccc(C)n1`, the T/C (dose: 6.25 mg/kg/injection, schedule: Q01DX005 (ip), vehicle: saline with Tween-80) is reported as 101 % of control and 107 % of control, the T/C (dose: 12.5 mg/kg/injection, schedule: Q01DX005 (ip), vehicle: saline with Tween-80) is reported as 103 % of control and 124 % of control and the T/C (dose: 25.0 mg/kg/injection, schedule: Q01DX005 (ip), vehicle: saline with Tween-80) is reported as 118 % of control.

`NC(=O)C(CO)NC(=O)c1cccnc1` (stereo not given) was tested, and the T/C (dose: 60.0 mg/kg/injection, schedule: Q01DX005 (ip), vehicle: saline) was 100 % of control, the T/C (dose: 120.0 mg/kg/injection, schedule: Q01DX005 (ip), vehicle: saline) was 100 % of control and the T/C (dose: 240.0 mg/kg/injection, schedule: Q01DX005 (ip), vehicle: saline) was 99 % of control.

`N=C(N)SCc1cccc(C(=O)O)c1` was tested, and the T/C [6] was 110 % of control, the T/C [7] was 105 % of control and the T/C [8] was 96 % of control.

With `Cc1ccc(Cl)cc1N=Cc1cccs1` the T/C [9] was 97 % of control, the T/C [10] was 105 % of control and the T/C [11] was 108 % of control.

`CCCCCCC1(O)OC(=O)C(C)=C1C` (stereo not given) was tested, and the T/C (dose: 12.5 mg/kg/injection, schedule: Q04DX003 (ip), vehicle: saline with Tween-80) was 110 % of control, the T/C (dose: 25.0 mg/kg/injection, schedule: Q04DX003 (ip), vehicle: saline with Tween-80) was 94 % of control and the T/C (dose: 50.0 mg/kg/injection, schedule: Q04DX003 (ip), vehicle: saline with Tween-80) was 94 % of control.

In the case of `CCOC(=O)C(SC#N)[Se]c1ccccc1` (stereo not given), the T/C [12] is reported as 106 % of control and the T/C [13] is reported as 109 % of control.

`COC(=O)NN(C(=O)OC)C12CCCC1N(C(=O)OC)N(C(=O)OC)c1c2ccc2cc(OC)ccc12` (stereo not given) was tested, and the T/C (dose: 100.0 mg/kg/injection, schedule: Q04DX002 (ip), vehicle: Klucel (hydroxypropylcellulose) (HPC)) was 99 % of control, the T/C (dose: 200.0 mg/kg/injection, schedule: Q04DX002 (ip), vehicle: Klucel (hydroxypropylcellulose) (HPC)) was 92 % of control and the T/C (dose: 400.0 mg/kg/injection, schedule: Q04DX002 (ip), vehicle: Klucel (hydroxypropylcellulose) (HPC)) was 90 % of control.

For `Cc1nn(-c2nc(-c3ccc(Br)cc3)cs2)c(C)c1C`, the T/C [9] was 105 % of control, the T/C [10] was 106 % of control and the T/C [11] was 105 % of control.

With `COc1ccc(C2(c3ccc(OC)cc3)c3ccccc3C(=O)c3ccc(OC)cc32)cc1` the T/C [12] was 98 % of control, the T/C [13] was 100 % of control and the T/C [14] was 96 % of control.

With `O=C(O)CCNC(Cc1ccc(O)cc1)C(=O)O` (stereo not given) the T/C [6] was 96 % of control, the T/C [7] was 102 % of control and the T/C [8] was 103 % of control.

For `CC(=O)OC1OC(CS[As](C2CCCCC2)C2CCCCC2)C(OC(C)=O)C(OC(C)=O)C1OC(C)=O` (stereo not given), the T/C (dose: 12.5 mg/kg/injection, schedule: Q01DX009 (ip), vehicle: Klucel (hydroxypropylcellulose) (HPC)) was 104 % of control and 111 % of control, the T/C (dose: 25.0 mg/kg/injection, schedule: Q01DX009 (ip), vehicle: Klucel (hydroxypropylcellulose) (HPC)) was 104 % of control and 120 % of control and the T/C [9] was 98 % of control and 101 % of control.

For `Nc1nc2[nH]c(=O)[nH]c2c(=O)[nH]1`, the T/C [12] was 94 % of control, the T/C [13] was 93 % of control and the T/C [14] was 91 % of control.

`CCOC(=O)c1ccc(NC(=O)Nc2ccc(N(C)C(C)=O)cc2)cc1` was tested, and the T/C (dose: 60.0 mg/kg/injection, schedule: Q01DX005 (ip), vehicle: Klucel (hydroxypropylcellulose) (HPC)) was 90 % of control, the T/C (dose: 120.0 mg/kg/injection, schedule: Q01DX005 (ip), vehicle: Klucel (hydroxypropylcellulose) (HPC)) was 90 % of control and the T/C (dose: 240.0 mg/kg/injection, schedule: Q01DX005 (ip), vehicle: Klucel (hydroxypropylcellulose) (HPC)) was 88 % of control.

In the case of `C1CC[N-]CC1.C1CC[N-]CC1.C1CC[N-]CC1.C1CC[N-]CC1.O=S(=O)(O)O.[Cu+2]`, the T/C (dose: 10.0 mg/kg/injection, schedule: Q04DX002 (ip), vehicle: saline) is reported as 100 % of control and the T/C (dose: 20.0 mg/kg/injection, schedule: Q04DX002 (ip), vehicle: saline) is reported as 110 % of control.

With `CC1(Br)CN(C(=S)Nc2ccccc2)C1=O` (stereo not given) the T/C [12] was 108 % of control, the T/C [13] was 105 % of control and the T/C [14] was 104 % of control.

For `CCOc1ccn(CC(=O)N2CCOCC2)c(=O)n1`, the T/C (dose: 100.0 mg/kg/injection, schedule: Q04DX003 (ip), vehicle: water) was 90 % of control, the T/C (dose: 200.0 mg/kg/injection, schedule: Q04DX003 (ip), vehicle: water) was 100 % of control and the T/C (dose: 400.0 mg/kg/injection, schedule: Q04DX003 (ip), vehicle: water) was 90 % of control.

`S=c1nc(N(c2ccccc2)c2ccccc2)[nH]s1` was tested, and the T/C [1] was 104 % of control, the T/C [2] was 101 % of control and the T/C (dose: 50.0 mg/kg/injection, schedule: Q01DX009 (ip), vehicle: saline with Tween-80) was 93 % of control.
